Measured values reported in paper PMC6409085, “Three odorant-binding proteins are involved in the behavioral response of Sogatella furcifera to rice plant volatiles” (PeerJ, 2019).
Several values for one entry are separate records, joined by “and”; a condition that tells them apart may be missing. Identical values can stand only once.

Columns and labels:
SfurOBP1 = SfurOBP1 (Sogatella furcifera, UniProt V5T8N5); experiment: biochemical; type: binding; conditions: for Fluorescence competitive binding assay, fluorescence intensity: OBP1, three replicate columns
Method in brief: (§1)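 First, 2.0 µM protein in 50 mM Tris-HCl (pH 7.4) was titrated with 1-NPN to obtain K1-NPN. Then odorants (2–20 µM final) competed against 2.0 µM 1-NPN, with fluorescence (ex 337 nm) recorded after 2 min. Ki was computed from IC50 via Ki = IC50/(1 + [1-NPN]/K1-NPN).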

SfurOBP3 = SfurOBP3 (Sogatella furcifera, UniProt V5T818); experiment: biochemical; type: binding; conditions: for Fluorescence competitive binding assay, fluorescence intensity: OBP3, three replicate columns
Method in brief: as §1

SfurOBP2 = SfurOBP2 (Sogatella furcifera, UniProt V5T759); experiment: biochemical; type: binding
Method in brief: as §1

SfurOBP11 = SfurOBP11 (Sogatella furcifera, UniProt V5T6E3); experiment: biochemical; type: binding
Method in brief: as §1

S. furcifera adults = experiment: Y-tube olfactometer behavioral trials; type: in vivo, Sogatella furcifera; conditions: odorant 50 µL/L vs hexane; adults
Method in brief: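 Single S. furcifera adults (2 days post-emergence, starved 0.5 h) chose between odorant (100 µL of 50 µL/L on filter paper) and hexane control in a glass Y-tube, charcoal-filtered humidified air 300 mL/min per arm, 25 ± 1 °C, 50% RH. Choice scored if insect passed half an arm and stayed >1 min within 10 min; 45 insects per compound, chi-squared test.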

Sequence of SfurOBP1 (V5T8N5 entry or part of it): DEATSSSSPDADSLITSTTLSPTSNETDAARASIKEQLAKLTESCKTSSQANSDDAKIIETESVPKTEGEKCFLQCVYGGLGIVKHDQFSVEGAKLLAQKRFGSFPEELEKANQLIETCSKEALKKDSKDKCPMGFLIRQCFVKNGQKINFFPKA
Sequence of SfurOBP11 (V5T6E3 entry or part of it): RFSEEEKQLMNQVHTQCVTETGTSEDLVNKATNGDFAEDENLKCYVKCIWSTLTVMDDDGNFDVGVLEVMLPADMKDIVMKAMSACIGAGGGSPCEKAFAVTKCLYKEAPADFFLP
Sequence of SfurOBP2 (V5T759 entry or part of it): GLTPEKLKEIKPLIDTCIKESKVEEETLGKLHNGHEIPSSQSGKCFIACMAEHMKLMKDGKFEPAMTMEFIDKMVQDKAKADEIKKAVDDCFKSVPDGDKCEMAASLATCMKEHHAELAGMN
Sequence of SfurOBP3 (V5T818 entry or part of it): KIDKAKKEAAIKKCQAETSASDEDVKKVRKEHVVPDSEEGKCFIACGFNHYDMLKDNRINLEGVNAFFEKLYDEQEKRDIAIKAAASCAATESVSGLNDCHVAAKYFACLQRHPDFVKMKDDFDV

C=C1CC/C=C(\C)CC[C@@H]2[C@@H]1CC2(C)C [β-caryophyllene]
IC50 (SfurOBP1): > 20 µM | Fluorescence competitive binding assay, fluorescence intensity (SfurOBP1; ligand concentration 2 (μM)): 5117 and 5425 and 5286 | Fluorescence competitive binding assay, fluorescence intensity (SfurOBP1; ligand concentration 4 (μM)): 6363 and 5644 and 6004 | Fluorescence competitive binding assay, fluorescence intensity (SfurOBP1; ligand concentration 6 (μM)): 6522 and 6380 and 7207 | Fluorescence competitive binding assay, fluorescence intensity (SfurOBP1; ligand concentration 8 (μM)): 6475 and 7284 and 8411 | Fluorescence competitive binding assay, fluorescence intensity (SfurOBP1; ligand concentration 10 (μM)): 6788 and 8986 and 9051 | Fluorescence competitive binding assay, fluorescence intensity (SfurOBP1; ligand concentration 12 (μM)): 7963 and 9385 and 12364 | Fluorescence competitive binding assay, fluorescence intensity (SfurOBP1; ligand concentration 14 (μM)): 10459 and 9678 and 17343 | Fluorescence competitive binding assay, fluorescence intensity (SfurOBP1; ligand concentration 16 (μM)): 9671 and 11754 and 9907 | Fluorescence competitive binding assay, fluorescence intensity (SfurOBP1; ligand concentration 18 (μM)): 16605 and 15288 and 16195 | Fluorescence competitive binding assay, fluorescence intensity (SfurOBP1; ligand concentration 20 (μM)): 15809 and 13061 and 12977 | IC50 (SfurOBP3): > 20 µM | Fluorescence competitive binding assay, fluorescence intensity (SfurOBP3; ligand concentration 2): 59910 and 62614 and 72673 | Fluorescence competitive binding assay, fluorescence intensity (SfurOBP3; ligand concentration 4): 64089 and 65130 and 67441 | Fluorescence competitive binding assay, fluorescence intensity (SfurOBP3; ligand concentration 6): 62365 and 65722 and 64412 | Fluorescence competitive binding assay, fluorescence intensity (SfurOBP3; ligand concentration 8): 61822 and 63261 and 63413 | Fluorescence competitive binding assay, fluorescence intensity (SfurOBP3; ligand concentration 10): 59908 and 63429 and 67892 | Fluorescence competitive binding assay, fluorescence intensity (SfurOBP3; ligand concentration 12): 56993 and 56771 and 64941 | Fluorescence competitive binding assay, fluorescence intensity (SfurOBP3; ligand concentration 14): 61557 and 60060 and 62301 | Fluorescence competitive binding assay, fluorescence intensity (SfurOBP3; ligand concentration 16): 39308 and 53990 and 51354 | Fluorescence competitive binding assay, fluorescence intensity (SfurOBP3; ligand concentration 18): 76113 and 82456 and 70640 | Fluorescence competitive binding assay, fluorescence intensity (SfurOBP3; ligand concentration 20): 72444 and 66812 and 61866 | IC50 (SfurOBP2): 2.93 µM | Fluorescence competitive binding assay, OBP2 (raw fluorescence reading) (SfurOBP2; ligand concentration 2 (unit not given), replicate column 1 of 3): 11458 | Fluorescence competitive binding assay, OBP2 (raw fluorescence reading) (SfurOBP2; ligand concentration 2 (unit not given), replicate column 2 of 3): 11327 | Fluorescence competitive binding assay, OBP2 (raw fluorescence reading) (SfurOBP2; ligand concentration 2 (unit not given), replicate column 3 of 3): 11281 | Fluorescence competitive binding assay, OBP2 (raw fluorescence reading) (SfurOBP2; ligand concentration 4 (unit not given), replicate column 1 of 3): 12040 | Fluorescence competitive binding assay, OBP2 (raw fluorescence reading) (SfurOBP2; ligand concentration 4 (unit not given), replicate column 2 of 3): 12315 | Fluorescence competitive binding assay, OBP2 (raw fluorescence reading) (SfurOBP2; ligand concentration 4 (unit not given), replicate column 3 of 3): 12582 | Fluorescence competitive binding assay, OBP2 (raw fluorescence reading) (SfurOBP2; ligand concentration 6 (unit not given), replicate column 1 of 3): 13825 | Fluorescence competitive binding assay, OBP2 (raw fluorescence reading) (SfurOBP2; ligand concentration 6 (unit not given), replicate column 2 of 3): 12794 | Fluorescence competitive binding assay, OBP2 (raw fluorescence reading) (SfurOBP2; ligand concentration 6 (unit not given), replicate column 3 of 3): 13738 | Fluorescence competitive binding assay, OBP2 (raw fluorescence reading) (SfurOBP2; ligand concentration 8 (unit not given), replicate column 1 of 3): 13150 | Fluorescence competitive binding assay, OBP2 (raw fluorescence reading) (SfurOBP2; ligand concentration 8 (unit not given), replicate column 2 of 3): 13647 | Fluorescence competitive binding assay, OBP2 (raw fluorescence reading) (SfurOBP2; ligand concentration 8 (unit not given), replicate column 3 of 3): 14723 | Fluorescence competitive binding assay, OBP2 (raw fluorescence reading) (SfurOBP2; ligand concentration 10 (unit not given), replicate column 1 of 3): 16274 | Fluorescence competitive binding assay, OBP2 (raw fluorescence reading) (SfurOBP2; ligand concentration 10 (unit not given), replicate column 2 of 3): 13413 | Fluorescence competitive binding assay, OBP2 (raw fluorescence reading) (SfurOBP2; ligand concentration 10 (unit not given), replicate column 3 of 3): 15514 | Fluorescence competitive binding assay, OBP2 (raw fluorescence reading) (SfurOBP2; ligand concentration 12 (unit not given), replicate column 1 of 3): 16497 | Fluorescence competitive binding assay, OBP2 (raw fluorescence reading) (SfurOBP2; ligand concentration 12 (unit not given), replicate column 2 of 3): 15342 | Fluorescence competitive binding assay, OBP2 (raw fluorescence reading) (SfurOBP2; ligand concentration 12 (unit not given), replicate column 3 of 3): 16204 | Fluorescence competitive binding assay, OBP2 (raw fluorescence reading) (SfurOBP2; ligand concentration 14 (unit not given), replicate column 1 of 3): 16950 | Fluorescence competitive binding assay, OBP2 (raw fluorescence reading) (SfurOBP2; ligand concentration 14 (unit not given), replicate column 2 of 3): 15785 | Fluorescence competitive binding assay, OBP2 (raw fluorescence reading) (SfurOBP2; ligand concentration 14 (unit not given), replicate column 3 of 3): 16267 | Fluorescence competitive binding assay, OBP2 (raw fluorescence reading) (SfurOBP2; ligand concentration 16 (unit not given), replicate column 1 of 3): 16569 | Fluorescence competitive binding assay, OBP2 (raw fluorescence reading) (SfurOBP2; ligand concentration 16 (unit not given), replicate column 2 of 3): 16590 | Fluorescence competitive binding assay, OBP2 (raw fluorescence reading) (SfurOBP2; ligand concentration 16 (unit not given), replicate column 3 of 3): 16267 | Fluorescence competitive binding assay, OBP2 (raw fluorescence reading) (SfurOBP2; ligand concentration 18 (unit not given), replicate column 1 of 3): 20111 | Fluorescence competitive binding assay, OBP2 (raw fluorescence reading) (SfurOBP2; ligand concentration 18 (unit not given), replicate column 2 of 3): 21295 | Fluorescence competitive binding assay, OBP2 (raw fluorescence reading) (SfurOBP2; ligand concentration 18 (unit not given), replicate column 3 of 3): 20566 | Fluorescence competitive binding assay, OBP2 (raw fluorescence reading) (SfurOBP2; ligand concentration 20 (unit not given), replicate column 1 of 3): 21451 | Fluorescence competitive binding assay, OBP2 (raw fluorescence reading) (SfurOBP2; ligand concentration 20 (unit not given), replicate column 2 of 3): 21222 | Fluorescence competitive binding assay, OBP2 (raw fluorescence reading) (SfurOBP2; ligand concentration 20 (unit not given), replicate column 3 of 3): 20042 | IC50 (SfurOBP11): > 20 µM | Fluorescence intensity, fluorescence competitive binding assay, OBP11 (SfurOBP11; ligand concentration 2, replicate 1): 23970 | Fluorescence intensity, fluorescence competitive binding assay, OBP11 (SfurOBP11; ligand concentration 2, replicate 2): 23335 | Fluorescence intensity, fluorescence competitive binding assay, OBP11 (SfurOBP11; ligand concentration 2, replicate 3): 21938 | Fluorescence intensity, fluorescence competitive binding assay, OBP11 (SfurOBP11; ligand concentration 4, replicate 1): 23122 | Fluorescence intensity, fluorescence competitive binding assay, OBP11 (SfurOBP11; ligand concentration 4, replicate 2): 24566 | Fluorescence intensity, fluorescence competitive binding assay, OBP11 (SfurOBP11; ligand concentration 4, replicate 3): 25482 | Fluorescence intensity, fluorescence competitive binding assay, OBP11 (SfurOBP11; ligand concentration 6, replicate 1): 23526 | Fluorescence intensity, fluorescence competitive binding assay, OBP11 (SfurOBP11; ligand concentration 6, replicate 2): 25770 | Fluorescence intensity, fluorescence competitive binding assay, OBP11 (SfurOBP11; ligand concentration 6, replicate 3): 26267 | Fluorescence intensity, fluorescence competitive binding assay, OBP11 (SfurOBP11; ligand concentration 8, replicate 1): 21931 | Fluorescence intensity, fluorescence competitive binding assay, OBP11 (SfurOBP11; ligand concentration 8, replicate 2): 24474 | Fluorescence intensity, fluorescence competitive binding assay, OBP11 (SfurOBP11; ligand concentration 8, replicate 3): 27203 | Fluorescence intensity, fluorescence competitive binding assay, OBP11 (SfurOBP11; ligand concentration 10, replicate 1): 23853 | Fluorescence intensity, fluorescence competitive binding assay, OBP11 (SfurOBP11; ligand concentration 10, replicate 2): 25460 | Fluorescence intensity, fluorescence competitive binding assay, OBP11 (SfurOBP11; ligand concentration 10, replicate 3): 25443 | Fluorescence intensity, fluorescence competitive binding assay, OBP11 (SfurOBP11; ligand concentration 12, replicate 1): 23639 | Fluorescence intensity, fluorescence competitive binding assay, OBP11 (SfurOBP11; ligand concentration 12, replicate 2): 23490 | Fluorescence intensity, fluorescence competitive binding assay, OBP11 (SfurOBP11; ligand concentration 12, replicate 3): 23358 | Fluorescence intensity, fluorescence competitive binding assay, OBP11 (SfurOBP11; ligand concentration 14, replicate 1): 23808 | Fluorescence intensity, fluorescence competitive binding assay, OBP11 (SfurOBP11; ligand concentration 14, replicate 2): 26534 | Fluorescence intensity, fluorescence competitive binding assay, OBP11 (SfurOBP11; ligand concentration 14, replicate 3): 25924 | Fluorescence intensity, fluorescence competitive binding assay, OBP11 (SfurOBP11; ligand concentration 16, replicate 1): 22662 | Fluorescence intensity, fluorescence competitive binding assay, OBP11 (SfurOBP11; ligand concentration 16, replicate 2): 23024 | Fluorescence intensity, fluorescence competitive binding assay, OBP11 (SfurOBP11; ligand concentration 16, replicate 3): 23415 | Fluorescence intensity, fluorescence competitive binding assay, OBP11 (SfurOBP11; ligand concentration 18, replicate 1): 30250 | Fluorescence intensity, fluorescence competitive binding assay, OBP11 (SfurOBP11; ligand concentration 18, replicate 2): 30294 | Fluorescence intensity, fluorescence competitive binding assay, OBP11 (SfurOBP11; ligand concentration 18, replicate 3): 30235 | Fluorescence intensity, fluorescence competitive binding assay, OBP11 (SfurOBP11; ligand concentration 20, replicate 1): 30296 | Fluorescence intensity, fluorescence competitive binding assay, OBP11 (SfurOBP11; ligand concentration 20, replicate 2): 30444 | Fluorescence intensity, fluorescence competitive binding assay, OBP11 (SfurOBP11; ligand concentration 20, replicate 3): 30224 | number of insects choosing hexane arm (S. furcifera adults): 15 | number of insects choosing volatilies arm (S. furcifera adults): 16 | number of insects failed (no choice) (S. furcifera adults): 9
